Reference: paper PMC6315057, “Industrial scale high-throughput screening delivers multiple fast acting macrofilaricides” (Nature Communications, 2019)
Converted amounts (≈) assume the structure as drawn.

Key:
[1] = system: THP-1 cells; assay: Mammalian cell viability counter-screen (CellTiter-Blue); type: cell-based, human; details: Homo sapiens, 48 h, read-out: HTS IC50 mammalian toxicity
Protocol: The human monocytic THP-1 cell line (ATCC® TIB-202) used for mammalian cytotoxicity evaluation was routinely cultured in roller bottles. Growth media consisted of RPMI 1640 supplemented with 10% FBS and 2 mM L-glutamine. Cells were maintained at 37 °C with 95% humidity in 5% CO2 in a shaking incubator.
All compounds selected for secondary IC50 screen were tested in parallel for mammalian cell viability using the CellTiter-Blue® Cell Viability Assay. THP1 cells were removed from culture and plated at 1 × 10^4 cells/well (40 µl) into 384-well assay ready plates and incubated at 37 °C, 5% CO2 for 48 h at 95% humidity. After the addition of CellTiter-Blue Viability reagent (8 µl of a 1:6 dilution) the assay plates were incubated for a further 2 h before fluorescence detected using a PerkinElmer EnVision™ plate reader.

[2] = Aqueous solubility in pH 7.4 PBS; type: physicochemical; details: for solubility: PBS pH 7.4, aqueous buffer, pH 7.4 PBS, read-out: Aqueous solubility in pH7.4 PBS
Source text: (§1) The DMPK data used for triaging compounds, including LogD7.4, aqueous solubility, plasma protein binding, microsome and hepatocyte clearance measurements, were generated using the standard AstraZeneca UK high-throughput platform[37],[38].

[3] = system: Wolbachia in C6/36 (wAlbB) cells; assay: Confirmatory re-assessment in the insect cell screen (cell assay EC50); type: cell-based, Wolbachia pipientis wAlbB (in Aedes albopictus C6/36 cells); details: for EC50: Wolbachia, C6/36, insect cell screen, re-sourced or re-synthesised samples
Source text: To further validate the hit molecules from these 9 clusters, samples were sourced either from the AstraZeneca compound inventory or through re-synthesis. All 18 samples were characterised by nuclear magnetic resonance (NMR) and mass spectroscopy to confirm their chemical structures and by HPLC/LCMS to establish their purity (Supplementary Table 5 and Supplementary Data 1). These samples were also subject to confirmatory re-assessment in both the insect cell screen and Mf assays for anti-Wolbachia potency alongside confirmation of DMPK properties (LogD7.4, aqueous solubility in pH 7.4 PBS, human microsomal turnover, rat hepatocyte turnover and human plasma protein binding) (Fig. 4, Supplementary Figure 1 and Supplementary Table 4).
On day 0, a single cryovial was recovered and the cells washed before being transferred to a T225 cm^2 flask. After a 7-day recovery Wolbachia infection level (quality control (QC)) was checked by SYTO®11 DNA staining of both the host cell nuclei and intracellular Wolbachia. The end-point read out from the Operetta® high content imaging system (Perkin Elmer) was the percentage of cells infected with Wolbachia. This was obtained from cytoplasm texture analysis by the associated Harmony® software. Cells with a >50% of the population infected with Wolbachia were classed as having a good Wolbachia level and therefore used for screening through addition of 2000 cells per well into assay ready 384-well plates containing the test compounds. […] Each plate included on-board controls; vehicle/DMSO (total/maximum Wolbachia signal) or doxycycline 5 µM (null/minimum Wolbachia signal), resulting in single shot screening of 352 compounds per plate for the primary screen. […] QC plates were also created including full columns of the following controls; DMSO (total/max), 5 μM doxycycline (null/min), as well as 50 nM doxycycline (reference/medium Wolbachia signal). Daily batches contained ~150 compound plates in addition to the QC plates. Each compound plate was foil sealed before incubation for 7 days at 26 °C, 95% humidity and atmospheric air.

[4] = Human microsome clearance; type: in vitro ADME; details: for microsomal CLint: human, human microsomes
Source text: as §1

[5] = Human plasma protein binding; type: in vitro ADME; details: plasma
Source text: as §1

[6] = system: Wolbachia within Brugia malayi Mf; assay: Anti-Wolbachia time-kill analysis (timed wash-out) in B. malayi Mf; type: cell-based; details: 10x EC50, 1 day exposure, wash, 6-day read out, normalised to vehicle control
Source text: To compare the dynamics of the in vitro phenotype of our hits with existing anti-Wolbachia therapies, we employed a timed wash-out strategy (Fig. 5) at 10x EC50 to establish the anti-Wolbachia time-kill kinetics of the selected chemotypes (1A–5A), using five replicates per compound. […].
Fig. 5 Anti-Wolbachia time-kill analysis. Representatives from the top five clusters (1A–5A), as well as established anti-Wolbachia antibacterials (doxycycline (white), minocycline (grey), rifampicin (black)) were assessed after exposure for 1 day and 2 days before washing and further incubation until the standard 6-day read out. wsp:gst ratio was normalised to the DMSO vehicle control resulting in a read out of mean percentage reduction from control. Doxycycline day 6 treatment represents the result for exposure to doxycycline at 5 µM for a full 6 days (no wash). The box extends from the 25th to the 75th percentile with the median presented by the central line. The whiskers are set at the minimum and maximum therefore indicating the range from five replicates. The cluster number is indicated by colour: cluster 1 (dark blue), 2 (magenta), 3 (teal), 4 (dark gold), and 5 (light blue)
The Mf were obtained by peritoneal lavage, using a catheter, of gerbils (Meriones unguiculatus) harbouring a patent infection of B. malayi. Mf were purified using a PD-10 desalting column (Fisher), centrifuged (311 RCF for 5 min at room temperature) before the addition of 8000 Mf/well of a 96-well plate (100 µl per well) in complete media consisting of RPMI supplemented with 10% FBS, 1% penicillin streptomycin and 1% amphotericin B. Compounds were diluted in complete media and 100 µl was added per well, providing a final concentration of 5 µM, with five replicates per compound. Each plate contained doxycycline (5 µM) and DMSO controls. After incubation at 37 °C for 6 days in 5% CO2, visual assessment of Mf motility was performed and scored from 0 to 4 per well (where 0 = no movement and 4 = highly motile). DNA extraction per sample was performed using the QIAmp DNA Mini Kit before quantitative PCR was performed to obtain the ratio of Wolbachia Surface Protein gene copy number (wsp) to Glutathione S-Transferase gene copy number (gst)[36]. The DNA was amplified using the primers as indicated in Supplementary Table 6.
The wsp:gst ratio data allowed for normalisation of the Wolbachia level to the Mf biomass for each well. The change in wsp:gst for each compound compared to the DMSO control was calculated before normalisation to the onboard doxycycline control to allow for inter-assay comparison.

[7] = LogD7.4; type: physicochemical; details: pH 7.4
Source text: as §1

[8] = Rat hepatocyte clearance; type: in vitro ADME
Source text: as §1

solubility [2]	microsomal CLint [4]	fraction unbound [5]	logD [7]	Rat hepatocytes CLint [8]	Solubility (in words) [2]	Human microsomal stability (in words) [4]	Metabolic stability (in words) ([4]; in vitro, system not given)	Structure (SMILES)	IC50 [1]	EC50 [3]	Wolbachia reduction after a single day of exposure [6]	Insect cell screen activity (in words) [3]
663 µM (≈ 338 µg/mL)	211 µL/min/mg	0.24	2.6	31.1 µl/min/1x106 cells				Cc1nccc(N2CCC(C(=O)N(C)CCN(C)S(=O)(=O)c3ccc(Br)cc3)CC2)n1 [1A, N-(2-((4-bromo-N-methylphenyl)sulfonamido)ethyl)-N-methyl-1-(2-methylpyrimidin-4-yl)piperidine-4-carboxamide]	> 30600 nM	192 nM	57–67%	
> 1000 µM	92 µL/min/mg	0.078	3.2	> 300 µl/min/1x106 cells	excellent	poor		CCc1ccc(CN2CCCC2c2nc(C(=O)N(C)C)cs2)s1 (stereo not drawn) [4A, 2-(1-((5-ethylthiophen-2-yl)methyl)pyrrolidin-2-yl)-N,N-dimethylthiazole-4-carboxamide]	> 30600 nM	41 nM	57–67%	strong

Continued, compound first:

Structure (SMILES)	solubility [2]	microsomal CLint [4]	fraction unbound [5]	logD [7]	Rat hepatocytes CLint [8]	Solubility (in words) [2]	Human microsomal stability (in words) [4]	Metabolic stability (in words) ([4]; in vitro, system not given)	IC50 [1]	EC50 [3]	Wolbachia reduction after a single day of exposure [6]	Insect cell screen activity (in words) [3]
COc1ccc(CC(=O)Nc2[nH]nc(C)c2-c2ccccc2)c(Cl)c1 [2A, 2-(2-chloro-4-methoxyphenyl)-N-(3-methyl-4-phenyl-1H-pyrazol-5-yl)acetamide]	71 µM (≈ 25.3 µg/mL)	41.2 µL/min/mg	0.021	3.1	262.8 µl/min/1x106 cells				> 30600 nM	242 nM	57–67%	
CC1COCCN1c1cc(OCc2ccccc2)nc(-c2nccn2C)n1 (stereo not drawn) [3A, 4-(6-(benzyloxy)-2-(1-methyl-1H-imidazol-2-yl)pyrimidin-4-yl)-3-methylmorpholine]	538 µM (≈ 197 µg/mL)	59.7 µL/min/mg	0.042	3.3	147.0 µl/min/1x106 cells				> 30600 nM	662 nM	42%	
Cc1nc(C(=O)NC(C)c2ccc(F)cc2)c(NC(=O)Cc2ccccc2)[nH]1 (stereo not drawn) [5A, N-(1-(4-fluorophenyl)ethyl)-2-methyl-5-(2-phenylacetamido)-1H-imidazole-4-carboxamide]	12 µM (≈ 4.57 µg/mL)	39.5 µL/min/mg	0.073	3.5	8.0 µl/min/1x106 cells	lower		moderate	> 30600 nM	296 nM	57–67%	
